Common to all, as to type: functional, cell-based
In experiment [1] the test system is HepG2. The experiment is described as follows: Cytotoxicity against human HepG2 cells after 72 hrs by MTT assay. The conditions noted are these: HepG2, 72 h. On the technique in general: Tetrazolium assays rely on reduction of a dye to a coloured formazan, in cell work by metabolically active cells.
For experiment [2], the system named is MCF7. The experiment is described as follows: Cytotoxicity against human MCF7 cells after 72 hrs by MTT assay. To be noted: MCF7, 72 h.
For experiment [3], the system named is HT-29. The experiment is described as follows: Cytotoxicity against human HT-29 cells after 72 hrs by MTT assay. To be noted: HT-29, 72 h.
In experiment [4] the test system is MKN-28. Description: Cytotoxicity against human MKN28 cells after 72 hrs by MTT assay. To be noted: MKN-28, 72 h.

On to `CC(=O)O[C@@H]1C[C@@]23C[C@@]24CC[C@H](O)C(C)(C)[C@@H]4CC[C@H]3[C@]2(C)[C@@H](O)[C@@]34C[C@H](C(C)(C)O)[C@@H](C[C@@H](C)[C@@H]3[C@@]12C)O4`, for which the IC50 (commonly the concentration that gives 50% inhibition) in experiment [1] was 43.1 µM; in experiment [2], above 100 µM; in experiment [3], above 100 µM; in experiment [4] it was above 100 µM.
With `CC(=O)O[C@@H]1CO[C@@H](O[C@H]2CC[C@]34C[C@]35CC[C@]3(C)[C@H]6[C@H](C)C[C@H]7O[C@@]6(C[C@@H]7C(C)(C)OC(C)=O)[C@H](O)[C@@]3(C)[C@@H]5CC[C@H]4C2(C)C)[C@H](O)[C@H]1O`, the IC50 is 2.8 µM in experiment [1], above 100 µM in experiment [2], 26.1 µM in experiment [3] and above 100 µM in experiment [4].
As to `CC(=O)O[C@@H]1C[C@@]23C[C@@]24CC[C@H](O[C@@H]2OC[C@@H](O)[C@H](O)[C@H]2O)C(C)(C)[C@@H]4CC[C@H]3[C@]2(C)[C@@H](O)[C@@]34C[C@H](C(C)(C)OC(C)=O)[C@@H](C[C@@H](C)[C@@H]3[C@@]12C)O4`, the IC50 in experiment [1] was above 100 µM; in experiment [2], 47.5 µM; in experiment [3] it was above 100 µM; in experiment [4], above 100 µM.
Regarding `CC(=O)O[C@@H]1[C@@H](O)[C@H](O[C@H]2CC[C@]34C[C@]35CC[C@]3(C)[C@H]6[C@H](C)C[C@H]7O[C@@]6(C[C@@H]7C(C)(C)OC(C)=O)[C@H](O)[C@@]3(C)[C@@H]5CC[C@H]4C2(C)C)OC[C@H]1O`, the IC50 was 0.71 µM in experiment [1], above 100 µM in experiment [2], 28.9 µM in experiment [3] and above 100 µM in experiment [4].
Consider `C[C@@H]1C[C@H]2O[C@@]3(C[C@@H]2C(C)(C)O)[C@H](O)[C@@]2(C)[C@@H]4CC[C@H]5C(C)(C)C(=O)CC[C@@]56C[C@@]46CC[C@]2(C)[C@@H]13`, for which the IC50 is 5.51 µM in experiment [1], above 100 µM in experiment [2], 15.4 µM in experiment [3] and 72 µM in experiment [4].
Regarding `CC(C)(O)[C@@H]1Cc2c(cc3oc(CO)cc(=O)c3c2O)O1` [NORCIMIFUGIN], the IC50 in experiment [1] was 5.55 µM; in experiment [2] it was above 100 µM; in experiment [3], above 100 µM; in experiment [4] it was above 100 µM.
Consider `CC(=O)O[C@@H]1C[C@@]23C[C@@]24CC[C@H](O)C(C)(C)[C@@H]4CC[C@H]3[C@]2(C)C[C@@H]3O[C@]4(C[C@@H](C)[C@@H]3[C@@]12C)C[C@H](O)[C@@]1(C)O[C@@H]41` [ACTEINOL], for which the IC50 in experiment [1] is 2.56 µM; in experiment [2] it was above 100 µM; in experiment [3], above 100 µM; in experiment [4] it was above 100 µM.
As for `C[C@@H]1C[C@H]2O[C@@]3(C[C@@H]2C(C)(C)O)[C@H](O)[C@@]2(C)[C@@H]4CC[C@H]5C(C)(C)[C@@H](O[C@@H]6OC[C@H](O)[C@H](O)[C@H]6O)CC[C@@]56C[C@@]46CC[C@]2(C)[C@@H]13`, the half-inhibitory concentration (IC50) in experiment [1] is 20.4 µM; in experiment [2], above 100 µM; in experiment [3], above 100 µM; in experiment [4], above 100 µM.
`CC(=O)OC(C)(C)[C@H]1C[C@@]23O[C@@H]1C[C@@H](C)[C@@H]2[C@@]1(C)CC[C@@]24C[C@@]25CC[C@H](O)C(C)(C)[C@@H]5CC[C@H]4[C@]1(C)[C@H]3O`: the IC50 was 20.3 µM in experiment [1], above 100 µM in experiment [2], above 100 µM in experiment [3] and above 100 µM in experiment [4].
For the molecule `CC(=O)O[C@@H]1[C@@H](O)[C@H](O[C@H]2CC[C@]34C[C@]35C[C@@H](OC(C)=O)[C@]3(C)[C@H]6[C@H](C)C[C@@]7(CC[C@]8(C)O[C@H]78)O[C@H]6C[C@@]3(C)[C@@H]5CC[C@H]4C2(C)C)OC[C@H]1O`, the IC50 in experiment [1] is 1.41 µM; in experiment [2], above 100 µM; in experiment [3] it was 35.7 µM; in experiment [4], above 100 µM.
On to `C/C=C/C(=O)O[C@@H]1CO[C@@H](O[C@H]2CC[C@]34C[C@]35CC[C@]3(C)[C@H]6[C@H](C)C[C@H]7O[C@@]6(C[C@@H]7C(C)(C)OC(C)=O)[C@H](O)[C@@]3(C)[C@@H]5CC[C@H]4C2(C)C)[C@H](O)[C@H]1O`, for which the 50% inhibitory concentration (IC50) in experiment [1] is 1.29 µM; in experiment [2], above 100 µM; in experiment [3], above 100 µM; in experiment [4], above 100 µM.
On to `CC(=O)O[C@@H]1C[C@@]23C[C@@]24CC[C@H](O[C@@H]2OC[C@@H](O)[C@H](O)[C@H]2O)C(C)(C)[C@@H]4CC[C@H]3[C@]2(C)C[C@@H]3OC(C(=O)C(C)C)=C[C@@H](C)[C@@H]3[C@@]12C` [ASIATICOSIDE A], for which the IC50 in experiment [1] is 4.02 µM; in experiment [2], above 100 µM; in experiment [3], 49.4 µM; in experiment [4], 54.8 µM.
The matching figures for `CC(=O)O[C@@H]1C[C@@]23C[C@@]24CC[C@H](O)C(C)(C)[C@@H]4CC[C@H]3[C@]2(C)C[C@@H]3O[C@@]4(CC[C@@]5(C)O[C@@H]45)C[C@@H](C)[C@@H]3[C@@]12C`: 27.7 µM, above 100 µM, 35.4 µM and 82.2 µM.
The matching figures for `C/C=C/C(=O)O[C@H]1[C@H](O[C@H]2CC[C@]34C[C@]35CC[C@]3(C)[C@H]6[C@H](C)C[C@H]7O[C@@]6(C[C@@H]7C(C)(C)OC(C)=O)[C@H](O)[C@@]3(C)[C@@H]5CC[C@H]4C2(C)C)OC[C@@H](O)[C@@H]1O`: 6.37 µM, above 100 µM, 78.5 µM and 53.8 µM.
As for `CC(=O)O[C@@H]1[C@@H](O)[C@H](O[C@H]2CC[C@]34C[C@]35C[C@@H](OC(C)=O)[C@]3(C)[C@H]6[C@H](C)C[C@]7(C[C@H](O)[C@@]8(C)O[C@@H]78)O[C@H]6C[C@@]3(C)[C@@H]5CC[C@H]4C2(C)C)OC[C@H]1O`, the IC50 in experiment [1] is 32.1 µM; in experiment [2] it was above 100 µM; in experiment [3], 50.1 µM; in experiment [4] it was 53.4 µM.

For the origin of these results see ChEMBL document CHEMBL1154918, “Cytotoxic chemical constituents from the roots of Cimicifuga foetida. [corrected]” (J Nat Prod, 2010).
